From ChEMBL document CHEMBL4043275, “Design, synthesis and biological evaluation of phthalimide-alkylamine derivatives as balanced multifunctional cholinesterase and monoamine oxidase-B inhibitors for the treatment of Alzheimer's disease” (Bioorg Med Chem Lett, 2017) come the findings set out here.

Calls of active or inactive are those of the source. The calls are words filed in the database; no cut-off is given here.

For data set [1], the target named is Acetylcholinesterase (Homo sapiens, UniProt P22303). The data set can be described thus: Inhibition of human erythrocyte AChE using acetylthiocholine chloride as substrate incubated for 15 mins by Ellman's method. (In general: In Ellman's method for cholinesterases, released thiocholine reacts with DTNB.)
The target in a further data set is Butyrylcholinesterase (Rattus norvegicus, UniProt Q9JKC1). The data set can be described thus: Inhibition of rat serum BChE using butyrylthiocholine chloride as substrate incubated for 15 mins by Ellman's method.
Data set [2] is described as follows: Effective permeability of the compound at 100 ug/ml by PAMPA-BBB assay. In general terms: The PAMPA barrier holds no transporters, so it reflects passive diffusion.
Data set [3] addresses Cholinesterase (Equus caballus, UniProt P81908). The data set can be described thus: Inhibition of equine serum BChE using butyrylthiocholine chloride as substrate incubated for 15 mins by Ellman's method.
The target of data set [4] is T1, Amine oxidase [flavin-containing] A (Homo sapiens, UniProt P21397).
T1 sequence (P21397 whole entry): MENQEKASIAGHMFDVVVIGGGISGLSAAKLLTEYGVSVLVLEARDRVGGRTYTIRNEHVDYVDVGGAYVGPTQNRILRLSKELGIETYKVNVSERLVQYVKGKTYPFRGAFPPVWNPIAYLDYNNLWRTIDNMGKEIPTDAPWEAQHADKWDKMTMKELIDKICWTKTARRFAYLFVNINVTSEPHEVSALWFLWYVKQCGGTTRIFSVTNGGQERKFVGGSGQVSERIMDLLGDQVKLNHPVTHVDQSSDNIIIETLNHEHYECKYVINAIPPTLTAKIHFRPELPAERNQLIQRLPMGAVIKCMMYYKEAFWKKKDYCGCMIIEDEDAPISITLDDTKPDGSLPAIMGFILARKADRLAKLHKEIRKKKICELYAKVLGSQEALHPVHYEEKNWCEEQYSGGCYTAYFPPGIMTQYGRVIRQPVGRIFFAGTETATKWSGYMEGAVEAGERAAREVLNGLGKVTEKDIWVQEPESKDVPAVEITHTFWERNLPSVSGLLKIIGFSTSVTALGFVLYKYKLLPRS
The data set can be described thus: Inhibition of human recombinant MAO-A expressed in baculovirus infected BTI insect cells at 20 uM using kynuramine as substrate after 30 mins by fluorescence assay relative to control. The following applies: 0.5 h.

Data set [5] concerns the target Cholinesterase (Homo sapiens, UniProt P06276). The data set can be described thus: Inhibition of human serum BChE using butyrylthiocholine chloride as substrate incubated for 15 mins by Ellman's method.
Data set [6] concerns SH-SY5Y. The data set can be described thus: Cytotoxicity against human SH-SY5Y cells assessed as decrease in cell viability at 100 uM after 24 hrs by MTT assay. The format is cell-based. (In general: Formazan colour is commonly taken as a measure of viable cells.)
Data set [7] addresses Acetylcholinesterase (Electrophorus electricus, UniProt O42275). Briefly: Inhibition of electric eel AChE using acetylthiocholine chloride as substrate incubated for 15 mins by Ellman's method.
A short description of data set [8]: Selectivity index, ratio of IC50 for equine serum BChE to IC50 for electric eel AChE.
Data set [9] deals with SH-SY5Y. The data set can be described thus: Cytotoxicity against human SH-SY5Y cells assessed as decrease in cell viability up to 10 uM after 24 hrs by MTT assay. The format is cell-based.
For data set [10], the target named is T2, Amine oxidase [flavin-containing] B (Homo sapiens, UniProt P27338).
T2 sequence (P27338 whole entry): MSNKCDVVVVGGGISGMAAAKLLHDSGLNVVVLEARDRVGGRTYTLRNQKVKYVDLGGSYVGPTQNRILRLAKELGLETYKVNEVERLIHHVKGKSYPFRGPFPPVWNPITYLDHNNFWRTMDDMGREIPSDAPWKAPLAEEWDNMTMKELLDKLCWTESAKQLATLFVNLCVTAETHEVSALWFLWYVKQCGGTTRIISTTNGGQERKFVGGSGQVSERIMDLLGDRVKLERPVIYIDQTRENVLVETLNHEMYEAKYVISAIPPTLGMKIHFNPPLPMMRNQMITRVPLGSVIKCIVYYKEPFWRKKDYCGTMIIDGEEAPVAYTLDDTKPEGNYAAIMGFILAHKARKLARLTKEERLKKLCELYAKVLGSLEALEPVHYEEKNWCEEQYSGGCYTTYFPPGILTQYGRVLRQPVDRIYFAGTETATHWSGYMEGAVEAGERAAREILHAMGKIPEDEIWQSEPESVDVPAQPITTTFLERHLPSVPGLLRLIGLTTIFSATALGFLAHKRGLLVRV
Briefly: Inhibition of human recombinant MAO-B expressed in baculovirus infected BTI insect cells using kynuramine as substrate after 30 mins by fluorescence assay. The format is cell-based.

Data set [11] concerns the target T3, Acetylcholinesterase (Rattus norvegicus, UniProt P37136).
T3 sequence (P37136 whole entry): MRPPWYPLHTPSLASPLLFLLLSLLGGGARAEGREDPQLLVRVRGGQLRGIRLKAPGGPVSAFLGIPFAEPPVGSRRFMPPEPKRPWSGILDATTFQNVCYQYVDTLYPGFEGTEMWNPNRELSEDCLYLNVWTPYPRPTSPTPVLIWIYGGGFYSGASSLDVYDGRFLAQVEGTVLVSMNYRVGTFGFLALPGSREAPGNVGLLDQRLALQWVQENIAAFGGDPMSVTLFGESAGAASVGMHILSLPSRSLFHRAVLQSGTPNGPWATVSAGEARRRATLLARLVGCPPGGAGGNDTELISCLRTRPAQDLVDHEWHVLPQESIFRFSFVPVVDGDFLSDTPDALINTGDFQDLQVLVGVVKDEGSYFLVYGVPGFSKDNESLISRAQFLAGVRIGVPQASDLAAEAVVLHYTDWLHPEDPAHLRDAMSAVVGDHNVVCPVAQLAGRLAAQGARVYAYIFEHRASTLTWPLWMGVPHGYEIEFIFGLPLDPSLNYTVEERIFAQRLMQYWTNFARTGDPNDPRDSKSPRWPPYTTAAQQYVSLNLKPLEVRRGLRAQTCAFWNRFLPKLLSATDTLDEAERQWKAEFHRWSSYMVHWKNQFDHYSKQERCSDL
Briefly: Inhibition of rat cortex homogenate AChE using acetylthiocholine chloride as substrate incubated for 15 mins by Ellman's method.

The target in data set [12] is Acetylcholinesterase (Electrophorus electricus) (UniProt O42275). Briefly: Mixed-type inhibition of electric eel AChE at 0.5 to 2 uM using acetylthiocholine chloride as substrate by Lineweaver-Burk plot analysis.
Chain of Acetylcholinesterase (Electrophorus electricus) (O42275 24-633 limits assumed): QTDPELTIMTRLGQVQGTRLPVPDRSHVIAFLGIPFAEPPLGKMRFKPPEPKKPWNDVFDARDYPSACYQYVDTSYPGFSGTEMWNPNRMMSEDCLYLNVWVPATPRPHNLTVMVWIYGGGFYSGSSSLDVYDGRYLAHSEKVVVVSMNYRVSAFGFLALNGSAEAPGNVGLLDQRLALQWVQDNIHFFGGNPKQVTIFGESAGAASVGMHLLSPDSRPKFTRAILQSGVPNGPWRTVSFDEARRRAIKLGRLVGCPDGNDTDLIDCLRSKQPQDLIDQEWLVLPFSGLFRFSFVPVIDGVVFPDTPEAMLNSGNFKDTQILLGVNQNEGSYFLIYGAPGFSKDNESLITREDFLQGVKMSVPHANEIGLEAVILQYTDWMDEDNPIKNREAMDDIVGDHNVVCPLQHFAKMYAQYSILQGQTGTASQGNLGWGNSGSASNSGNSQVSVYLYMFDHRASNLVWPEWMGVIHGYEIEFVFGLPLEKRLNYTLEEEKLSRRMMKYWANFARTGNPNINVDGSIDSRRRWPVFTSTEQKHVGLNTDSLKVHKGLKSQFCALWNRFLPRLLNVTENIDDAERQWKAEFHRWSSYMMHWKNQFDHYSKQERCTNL

Chain of Cholinesterase (Equus caballus, UniProt P81908) (P81908 whole entry): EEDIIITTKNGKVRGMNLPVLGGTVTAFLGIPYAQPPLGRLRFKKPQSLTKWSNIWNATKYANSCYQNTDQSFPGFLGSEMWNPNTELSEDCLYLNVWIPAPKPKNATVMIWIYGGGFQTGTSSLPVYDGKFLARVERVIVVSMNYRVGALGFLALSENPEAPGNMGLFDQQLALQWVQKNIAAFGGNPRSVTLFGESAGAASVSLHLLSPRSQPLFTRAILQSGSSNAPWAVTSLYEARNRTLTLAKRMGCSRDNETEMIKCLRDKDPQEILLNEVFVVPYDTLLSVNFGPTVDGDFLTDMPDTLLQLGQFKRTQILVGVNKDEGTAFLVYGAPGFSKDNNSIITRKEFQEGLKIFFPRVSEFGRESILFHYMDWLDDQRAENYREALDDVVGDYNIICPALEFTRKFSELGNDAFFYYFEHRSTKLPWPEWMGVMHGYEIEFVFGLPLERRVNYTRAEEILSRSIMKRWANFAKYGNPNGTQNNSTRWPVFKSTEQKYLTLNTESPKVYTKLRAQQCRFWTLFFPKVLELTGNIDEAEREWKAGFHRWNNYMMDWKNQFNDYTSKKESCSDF
Chain of Acetylcholinesterase (Electrophorus electricus, UniProt O42275) (O42275 whole entry): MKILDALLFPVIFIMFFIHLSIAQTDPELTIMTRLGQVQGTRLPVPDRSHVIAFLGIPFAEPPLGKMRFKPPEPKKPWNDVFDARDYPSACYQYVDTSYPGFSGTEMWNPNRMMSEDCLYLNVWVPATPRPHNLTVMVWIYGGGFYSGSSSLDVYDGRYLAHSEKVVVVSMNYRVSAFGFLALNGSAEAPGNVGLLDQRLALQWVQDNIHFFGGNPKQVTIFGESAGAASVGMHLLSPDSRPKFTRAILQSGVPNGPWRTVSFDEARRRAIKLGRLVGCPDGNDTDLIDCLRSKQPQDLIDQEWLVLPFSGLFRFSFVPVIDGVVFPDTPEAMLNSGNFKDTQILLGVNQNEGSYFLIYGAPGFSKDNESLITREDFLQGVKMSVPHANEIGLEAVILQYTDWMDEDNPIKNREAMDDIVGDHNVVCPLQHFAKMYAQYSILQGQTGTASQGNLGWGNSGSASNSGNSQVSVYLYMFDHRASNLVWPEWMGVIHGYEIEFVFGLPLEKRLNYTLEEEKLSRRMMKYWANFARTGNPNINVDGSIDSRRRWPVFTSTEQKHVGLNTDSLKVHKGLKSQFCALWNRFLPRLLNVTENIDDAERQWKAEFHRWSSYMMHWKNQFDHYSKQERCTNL
Chain of Acetylcholinesterase (Homo sapiens, UniProt P22303) (P22303 whole entry): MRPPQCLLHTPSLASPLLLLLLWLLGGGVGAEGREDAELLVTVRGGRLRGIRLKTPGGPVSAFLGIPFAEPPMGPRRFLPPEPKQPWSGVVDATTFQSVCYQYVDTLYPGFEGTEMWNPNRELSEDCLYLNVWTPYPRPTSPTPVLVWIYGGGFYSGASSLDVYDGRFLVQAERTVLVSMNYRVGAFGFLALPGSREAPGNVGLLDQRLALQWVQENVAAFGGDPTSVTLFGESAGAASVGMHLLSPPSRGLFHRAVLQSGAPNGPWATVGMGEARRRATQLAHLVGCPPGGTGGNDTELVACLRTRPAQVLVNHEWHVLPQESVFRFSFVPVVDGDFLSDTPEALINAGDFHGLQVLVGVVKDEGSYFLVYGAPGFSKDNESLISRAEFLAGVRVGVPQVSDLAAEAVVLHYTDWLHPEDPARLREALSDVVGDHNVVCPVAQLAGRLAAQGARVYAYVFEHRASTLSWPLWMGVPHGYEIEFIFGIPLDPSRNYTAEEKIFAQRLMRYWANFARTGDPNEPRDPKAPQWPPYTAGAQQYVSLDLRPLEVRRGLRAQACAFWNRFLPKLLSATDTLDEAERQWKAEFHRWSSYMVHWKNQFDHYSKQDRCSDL
Chain of Cholinesterase (Homo sapiens, UniProt P06276) (P06276 whole entry): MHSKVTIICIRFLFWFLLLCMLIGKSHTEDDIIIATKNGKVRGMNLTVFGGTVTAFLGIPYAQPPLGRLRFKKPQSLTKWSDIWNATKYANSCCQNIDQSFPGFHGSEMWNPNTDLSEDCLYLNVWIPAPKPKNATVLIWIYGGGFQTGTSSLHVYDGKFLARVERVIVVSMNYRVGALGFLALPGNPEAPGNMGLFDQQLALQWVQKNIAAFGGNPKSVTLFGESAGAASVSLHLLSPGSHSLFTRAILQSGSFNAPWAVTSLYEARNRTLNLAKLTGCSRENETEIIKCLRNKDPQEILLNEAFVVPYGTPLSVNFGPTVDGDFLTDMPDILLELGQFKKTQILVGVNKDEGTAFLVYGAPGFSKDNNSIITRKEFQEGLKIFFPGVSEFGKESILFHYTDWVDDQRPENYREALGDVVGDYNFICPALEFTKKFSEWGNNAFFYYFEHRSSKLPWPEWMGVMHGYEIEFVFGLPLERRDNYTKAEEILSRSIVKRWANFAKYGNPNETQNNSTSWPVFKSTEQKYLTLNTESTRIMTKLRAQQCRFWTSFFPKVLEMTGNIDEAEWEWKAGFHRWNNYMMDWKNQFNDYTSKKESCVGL
Chain of Butyrylcholinesterase (Q9JKC1 whole entry, the tested form may be a part): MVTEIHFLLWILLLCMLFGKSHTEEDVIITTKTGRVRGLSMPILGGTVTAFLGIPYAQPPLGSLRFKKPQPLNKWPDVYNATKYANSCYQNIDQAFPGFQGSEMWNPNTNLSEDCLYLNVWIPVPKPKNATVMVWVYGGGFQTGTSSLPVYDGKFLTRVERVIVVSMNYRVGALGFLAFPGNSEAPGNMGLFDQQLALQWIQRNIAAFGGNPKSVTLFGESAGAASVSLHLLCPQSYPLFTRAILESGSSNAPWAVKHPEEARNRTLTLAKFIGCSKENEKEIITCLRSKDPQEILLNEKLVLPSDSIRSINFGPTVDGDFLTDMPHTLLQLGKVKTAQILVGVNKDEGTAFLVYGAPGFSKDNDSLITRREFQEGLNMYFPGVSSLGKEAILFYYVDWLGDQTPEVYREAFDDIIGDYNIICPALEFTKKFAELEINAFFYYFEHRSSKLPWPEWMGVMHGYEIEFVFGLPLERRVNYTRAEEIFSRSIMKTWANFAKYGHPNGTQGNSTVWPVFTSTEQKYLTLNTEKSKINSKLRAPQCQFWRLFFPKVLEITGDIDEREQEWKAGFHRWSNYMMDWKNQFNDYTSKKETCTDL

For orientation: IC50 means the midpoint of a concentration-inhibition curve. Usually Papp stands for the rate of passage across a membrane or cell layer, normalised by area and donor concentration. Low values mean poor permeation, high ones ready permeation. The term inhibition denotes the share of the control response that was lost under treatment. For `C#CCN(CCCN1C(=O)c2ccccc2C1=O)Cc1ccccc1`, the IC50 came to 1.2 µM on Acetylcholinesterase [1]; 2.2 µM on Butyrylcholinesterase; 2.5 µM against Cholinesterase [3]; 3.8 µM against Cholinesterase [5]; 0.84 µM on Acetylcholinesterase [7]; 2.6 µM in data set [10]. The same molecule had a concentration for half-maximal inhibition (IC50) on Acetylcholinesterase [11] of 0.27 µM. The same molecule showed a Papp at 100 ug/ml in [2] of 26 ×10⁻⁶ cm/s. In addition, the inhibition at 20 µM in data set [4] was below 5%. The Activity is recorded as 86.7% in the data set with SH-SY5Y [6] and “Non-Toxic” in the data set on SH-SY5Y [9]. Moreover, the Ratio IC50 in [8] worked out at 3. Also, in [12], the inhibition result is “Active”.
